# Structures can show the parent of a compound that is named as a salt.
# Tests used:
# M5M7 = assay: Test B greenhouse phytotoxicity, M5M7; assay type: in vivo, sunflower; conditions: M5M7; 15 g a.i./ha post-emergence 4-leaf stage
# Experimental: (§1) A greenhouse experiment was conducted to evaluate the spectrum of tolerance of three homozygous resistant mutants to various herbicides inhibiting acetolactate synthase (ALS) as their mode of action. The inbred lines tested were the 5th generation self-pollinated maintainers, M5M7, M5M11 and M5M12, as well as the 4th generation male sterile back-crosses BC4-M5M7, BC4-M5M11 and BC4-M5M12. Treatments of formulated herbicides were applied post-emergence at the 4-leaf stage. Application rates of the test herbicides were chosen to coincide with the rates commonly used in the crops for which they are registered. The application rate of imazethapyr was chosen to match the rate recommended to control parasitic weeds in sunflowers by L. García-Torres et al., Weed Technology 1995, 9, 819-824. Wild type H89 inbred sunflower was not included in this test, because the many of the tested herbicides are known to be efficacious in controlling volunteer sunflower as a weed. Treatments were replicated twice. […] A rating of 0% phytotoxicity means no crop injury.
# M5M11 = assay: Test B greenhouse phytotoxicity, M5M11; assay type: in vivo, sunflower; conditions: M5M11; 15 g a.i./ha post-emergence 4-leaf stage
# Experimental: as §1
# M5M12 = assay: Test B greenhouse phytotoxicity, M5M12; assay type: in vivo, sunflower; conditions: M5M12; 15 g a.i./ha post-emergence 4-leaf stage
# Experimental: as §1
# BC4-M5M7 = assay: Test B greenhouse phytotoxicity, BC4-M5M7; assay type: in vivo, sunflower; conditions: BC4-M5M7; 15 g a.i./ha post-emergence 4-leaf stage
# Experimental: as §1
# BC4-M5M11 = assay: Test B greenhouse phytotoxicity, BC4-M5M11; assay type: in vivo, sunflower; conditions: BC4-M5M11; 15 g a.i./ha post-emergence 4-leaf stage
# Experimental: as §1
# BC4-M5M12 = assay: Test B greenhouse phytotoxicity, BC4-M5M12; assay type: in vivo, sunflower; conditions: BC4-M5M12; 15 g a.i./ha post-emergence 4-leaf stage
# Experimental: as §1
# [1] = test system: homozygous progeny of the three mutant sources; assay type: in vivo, sunflower; conditions: Test B application rates, post-emergence
# Experimental: as §1
# Chenopodium album = assay: Test H weed control, field plots; assay type: in vivo; conditions: 36 days after treatment; g a.i./ha: tribenuron-methyl 22.5, metsulfuron-methyl 6, ethametsulfuron-methyl 16, imazapyr isopropylamine salt 15, aclonifen 1200
# Excerpt: (§2) Field plots (2 m×5 m) were tilled to remove weed cover and then seeded in rows with the following weeds: Capsella bursa pastoris, Atriplex patula, Chenopodium album, Stellaria media, Mecurialis annua, Polygonum persicaria, Amaranthus retroflexus, Polygonum convolvulus, Polygonum aviculare, Viola arvensis, Matricaria inodora, Anagallis arvensis, Sinapis arvensis, Setaria viridis, Solanum nigrum and Echinochloa crusgalli. After 21 days from sowing, at which time the weeds had reached the 2- to 6-leaf stage, herbicide treatments were applied to the plots according to a complete randomized block design, with each herbicide treatment triply replicated. The herbicides were sprayed using standard flat fan nozzles moved perpendicular to the sown lines using water spray volumes of about 296 L/ha.
# (§3) Assessments of weed control were made by visual inspection 36 days after herbicide treatment. A visual rating system was used based on a percentage scale from 0 to 100% compared to an adjacent untreated control plot. On this scale 0 represents no visual differences relative to an untreated control and 100 represents complete control of the given weed species.
# Stellaria media = assay: Test H weed control, field plots; assay type: in vivo; conditions: 36 days after treatment; g a.i./ha: tribenuron-methyl 22.5, metsulfuron-methyl 6, ethametsulfuron-methyl 16, imazapyr isopropylamine salt 15, aclonifen 1200
# Excerpt: as §2, §3
# Amaranthus retroflexus = assay: Test H weed control, field plots; assay type: in vivo; design: concentration or dose not given beside the values; conditions: 36 days after treatment; g a.i./ha: tribenuron-methyl 22.5, metsulfuron-methyl 6, ethametsulfuron-methyl 16, imazapyr isopropylamine salt 15, aclonifen 1200
# Excerpt: as §2, §3
# Anagallis arvensis = assay: Test H weed control, field plots; assay type: in vivo; design: concentration or dose not given beside the values; conditions: 36 days after treatment; g a.i./ha: tribenuron-methyl 22.5, metsulfuron-methyl 6, ethametsulfuron-methyl 16, imazapyr isopropylamine salt 15, aclonifen 1200
# Excerpt: as §2, §3
# Atriplex patula = assay: Test H weed control, field plots; assay type: in vivo; design: concentration or dose not given beside the values; conditions: 36 days after treatment; g a.i./ha: tribenuron-methyl 22.5, metsulfuron-methyl 6, ethametsulfuron-methyl 16, imazapyr isopropylamine salt 15, aclonifen 1200
# Excerpt: as §2, §3
# Capsella bursa pastoris = assay: Test H weed control, field plots; assay type: in vivo; design: concentration or dose not given beside the values; conditions: 36 days after treatment; g a.i./ha: tribenuron-methyl 22.5, metsulfuron-methyl 6, ethametsulfuron-methyl 16, imazapyr isopropylamine salt 15, aclonifen 1200
# Excerpt: as §2, §3
# Echinochloa crus-galli = assay: Test H weed control, field plots; assay type: in vivo; design: concentration or dose not given beside the values; conditions: 36 days after treatment; g a.i./ha: tribenuron-methyl 22.5, metsulfuron-methyl 6, ethametsulfuron-methyl 16, imazapyr isopropylamine salt 15, aclonifen 1200
# Excerpt: as §2, §3
# Matricaria inodora = assay: Test H weed control, field plots; assay type: in vivo; design: concentration or dose not given beside the values; conditions: 36 days after treatment; g a.i./ha: tribenuron-methyl 22.5, metsulfuron-methyl 6, ethametsulfuron-methyl 16, imazapyr isopropylamine salt 15, aclonifen 1200
# Excerpt: as §2, §3
# Mercurialis annua = assay: Test H weed control, field plots; assay type: in vivo; design: concentration or dose not given beside the values; conditions: 36 days after treatment; g a.i./ha: tribenuron-methyl 22.5, metsulfuron-methyl 6, ethametsulfuron-methyl 16, imazapyr isopropylamine salt 15, aclonifen 1200
# Excerpt: as §2, §3
# Polygonum aviculare = assay: Test H weed control, field plots; assay type: in vivo; design: concentration or dose not given beside the values; conditions: 36 days after treatment; g a.i./ha: tribenuron-methyl 22.5, metsulfuron-methyl 6, ethametsulfuron-methyl 16, imazapyr isopropylamine salt 15, aclonifen 1200
# Excerpt: as §2, §3
# Polygonum convolvulus = assay: Test H weed control, field plots; assay type: in vivo; design: concentration or dose not given beside the values; conditions: 36 days after treatment; g a.i./ha: tribenuron-methyl 22.5, metsulfuron-methyl 6, ethametsulfuron-methyl 16, imazapyr isopropylamine salt 15, aclonifen 1200
# Excerpt: as §2, §3
# Polygonum persicaria = assay: Test H weed control, field plots; assay type: in vivo; design: concentration or dose not given beside the values; conditions: 36 days after treatment; g a.i./ha: tribenuron-methyl 22.5, metsulfuron-methyl 6, ethametsulfuron-methyl 16, imazapyr isopropylamine salt 15, aclonifen 1200
# Excerpt: as §2, §3
# Setaria viridis = assay: Test H weed control, field plots; assay type: in vivo; design: concentration or dose not given beside the values; conditions: 36 days after treatment; g a.i./ha: tribenuron-methyl 22.5, metsulfuron-methyl 6, ethametsulfuron-methyl 16, imazapyr isopropylamine salt 15, aclonifen 1200
# Excerpt: as §2, §3
# Sinapis arvensis = assay: Test H weed control, field plots; assay type: in vivo; design: concentration or dose not given beside the values; conditions: 36 days after treatment; g a.i./ha: tribenuron-methyl 22.5, metsulfuron-methyl 6, ethametsulfuron-methyl 16, imazapyr isopropylamine salt 15, aclonifen 1200
# Excerpt: as §2, §3
# Solanum nigrum = assay: Test H weed control, field plots; assay type: in vivo; design: concentration or dose not given beside the values; conditions: 36 days after treatment; g a.i./ha: tribenuron-methyl 22.5, metsulfuron-methyl 6, ethametsulfuron-methyl 16, imazapyr isopropylamine salt 15, aclonifen 1200
# Excerpt: as §2, §3
# Viola arvensis = assay: Test H weed control, field plots; assay type: in vivo; design: concentration or dose not given beside the values; conditions: 36 days after treatment; g a.i./ha: tribenuron-methyl 22.5, metsulfuron-methyl 6, ethametsulfuron-methyl 16, imazapyr isopropylamine salt 15, aclonifen 1200
# Excerpt: as §2, §3
# Orobanche cumana = assay: Test E control of Orobanche cumana in resistant sunflower hybrid; assay type: in vivo
# Experimental: The effect of the various treatments was evaluated 35 days after sowing. The sunflower roots were cleaned by washing in water, and the presence of Orobanche nodules was determined visually and by weighing root wet mass in comparison to check plants free of Orobanche infestation. […] The nodules caused by Orobanche increased root weight, and a correlation (r=0.7) was found between visual scores and weight measurements. Thus the weighing technique could be used to corroborate visual efficacy scorings. Orobanche emergence was also scored but found to be less useful to evaluate treatment efficiency at the evaluation timing of this test.
# (§4) Based on the results from Test D, a modified protocol was developed to include three timings of post-emergence treatment. The hybrid BC4-M5M12 (female parent)×PHA155 restorer line (male parent) described in Test C was used in this test. Various herbicide programs were tested using three replications. […] Seed coatings of these formulated herbicides were applied to 6 kg of seeds in such amount that considering the distribution of the coated seeds in each pot, the herbicide active ingredient (a.i.) application rates per hectare were as indicated.
# (§5) The treatments were applied similar to the methods described for Test D. Pre-emergence applications were broadcast only, not soil incorporated. For pre-emergence application, the pots were sprayed using the high rates of the herbicides two days after sowing the sunflower seeds. Post-emergence treatments were applied at the 4-6 leaf stage of sunflower (corresponding to early stage of Orobanche attachment; identified as “T1”), the 6-8 leaf stage of sunflower (corresponding to the mid stage of Orobanche attachment; nodules <5 mm diameter; identified as “T2”) and 8-12 leaf stage of sunflower (corresponding to late stage of Orobanche attachment; identified as “T3”). The mid-stage applications included the high as well as low application rates of each herbicide.
# (§6) For comparison were also included in this test other acetolactate synthase-inhibiting herbicides reported in the literature as giving good weed control of Orobanche (L. García-Torres et al., Weed Research 1994, 34, 395-402; L. García-Torres et al., Weed Technology 1995, 9, 819-824; J. Hershenhorn et al., Weed Technology 1998, 12, 108-114).
# [2] = test system: BC4-M5M12 × PHA155 hybrid; assay: Test E injury to sunflower hybrid; assay type: in vivo; conditions: in vivo
# Experimental: as §4, §5, §6
# [3] = test system: Orobanche cumana (Race F); assay: Test F sequential application to control Orobanche cumana; assay type: in vivo; conditions: post-emergence T3 15 g a.i./ha
# Experimental: A greenhouse experiment was performed to identify the best sequential program compared to straight application of tribenuron-methyl or metsulfuron-methyl for control of Orobanche cumana (Race F). The dose range for optimum efficacy was also studied. Both herbicides were used as formulated compositions. […] BC4-M5M7×PHA155 is referred to below as “Hybrid 7”, and BC4-M5M12×PHA155 is referred to below as “Hybrid 12”.
# Seed coating treatment was performed as described for Test D. Post-emergence treatments were applied at the 2-4 leaf stage of sunflower (corresponding to early stage of Orobanche attachment; identified as “T1”), the 6 leaf stage of sunflower (corresponding to the mid stage of Orobanche attachment; nodules <5 mm diameter; identified as “T2”) and 8 leaf stage of sunflower (corresponding to late stage of Orobanche attachment; identified as “T3”).
# The efficacy was evaluated visually as described for Test D except that the efficacy was assessed ten days later than for Tests D and E. The later evaluation allowed observing any reduction of efficacy due to late Orobanche emergence or re-growth of treated nodules. Efficacy in controlling Orobanche attached to roots was evidenced by nodules comprising black necrotic tissues with no apparent active meristematic area. These nodules could be easily crushed between fingers.
Structure (SMILES),"weed control, visual rating: Chenopodium album (Chenopodium album)","weed control, visual rating: Stellaria media (Stellaria media)","weed control, visual rating: Amaranthus retroflexus (Amaranthus retroflexus)","weed control, visual rating: Anagallis arvensis (Anagallis arvensis)","weed control, visual rating: Atriplex patula (Atriplex patula)","weed control, visual rating: Capsella bursa pastoris (Capsella bursa pastoris)","weed control, visual rating: Echinochloa crus-galli (Echinochloa crus-galli)","weed control, visual rating: Matricaria inodora (Matricaria inodora)","weed control, visual rating: Mercurialis annua (Mercurialis annua)","weed control, visual rating: Polygonum aviculare (Polygonum aviculare)","weed control, visual rating: Polygonum convolvulus (Polygonum convolvulus)","weed control, visual rating: Polygonum persicaria (Polygonum persicaria)","weed control, visual rating: Setaria viridis (Setaria viridis)","weed control, visual rating: Sinapis arvensis (Sinapis arvensis)","weed control, visual rating: Solanum nigrum (Solanum nigrum)","weed control, visual rating: Viola arvensis (Viola arvensis)",further results
"CCOc1nc(NC)nc(NC(=O)NS(=O)(=O)c2ccccc2C(=O)OC)n1 [Ethametsulfuron-methyl, ethametsulfuron-methyl]",0%,79%,82%,100%,0%,100%,33%,67%,0%,0%,0%,0%,0%,97%,70%,0%,Maximum Phytotoxicity (M5M7): 10%; Maximum Phytotoxicity (M5M11): 0%; Maximum Phytotoxicity (M5M12): 0%; Maximum Phytotoxicity (BC4-M5M7): 5%; Maximum Phytotoxicity (BC4-M5M11): 10%; Maximum Phytotoxicity (BC4-M5M12): 0%; tolerance of the mutants [1]: extremely resistant
"CC(C)C1(C)N=C(c2ncccc2C(=O)O)NC1=O (stereo not drawn) [Imazapyr, isopropylamine salt, Imazapyr]",87%,100%,84%,100%,85%,100%,27%,43%,47%,0%,94%,100%,93%,100%,100%,0%,"relative efficacy in controlling Orobanche (Orobanche cumana; Test E rates, metsulfuron-methyl compared with tribenuron-methyl): less efficacious in controlling Orobanche; Control (Orobanche cumana; post-emergence 15 g a.i./ha at T3): 72%; Injury [2]: 0%; sunflower phytotoxicity [2]: transitory phytotoxicity symptoms; % Control in Hybrid 7 [3]: 97%; % Control in Hybrid 12 [3]: 97%"

# Source: patent US6822146B2, “Sulfonylurea-tolerant sunflower line M7” (priority 2000, dated 2004)
